Measurements taken from patent publication US8784929B2 (priority 2007, dated 2014).

Tests used:
[1] = target: T1, αHL-WT (Staphylococcus aureus, UniProt P09616); conditions: cited from earlier work
[2] = target: T1, αHL-WT; assay type: biochemical, staphylococcal; conditions: pH 7

T1 sequence (P09616 27-319 limits assumed): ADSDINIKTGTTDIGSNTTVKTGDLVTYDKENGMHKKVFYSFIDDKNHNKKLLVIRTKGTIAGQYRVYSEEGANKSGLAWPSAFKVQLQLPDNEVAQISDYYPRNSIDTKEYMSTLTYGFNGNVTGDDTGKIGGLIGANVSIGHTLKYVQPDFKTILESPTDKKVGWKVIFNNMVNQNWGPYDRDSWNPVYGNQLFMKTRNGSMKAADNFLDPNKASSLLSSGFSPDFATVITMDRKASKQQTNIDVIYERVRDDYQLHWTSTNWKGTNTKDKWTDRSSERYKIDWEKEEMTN

Row | SMILES | binding of β-cyclodextrin (in words) [1] | current block on binding to αHL-WT [2] [%]
1 | OC[C@H]1O[C@@H]2O[C@H]3[C@H](O)[C@@H](O)[C@@H](O[C@H]4[C@H](O)[C@@H](O)[C@@H](O[C@H]5[C@H](O)[C@@H](O)[C@@H](O[C@H]6[C@H](O)[C@@H](O)[C@@H](O[C@H]7[C@H](O)[C@@H](O)[C@@H](O[C@H]8[C@H](O)[C@@H](O)[C@@H](O[C@H]1[C@H](O)[C@H]2O)O[C@@H]8CO)O[C@@H]7CO)O[C@@H]6CO)O[C@@H]5CO)O[C@@H]4CO)O[C@@H]3CO [β-cyclodextrin] | does not bind β-cyclodextrin strongly | –
2 | COC[C@H]1O[C@@H]2O[C@H]3[C@H](OC)[C@@H](OC)[C@@H](O[C@H]4[C@H](OC)[C@@H](OC)[C@@H](O[C@H]5[C@H](OC)[C@@H](OC)[C@@H](O[C@H]6[C@H](OC)[C@@H](OC)[C@@H](O[C@H]7[C@H](OC)[C@@H](OC)[C@@H](O[C@H]8[C@H](OC)[C@@H](OC)[C@@H](O[C@H]1[C@H](OC)[C@H]2OC)O[C@@H]8COC)O[C@@H]7COC)O[C@@H]6COC)O[C@@H]5COC)O[C@@H]4COC)O[C@@H]3COC [hβCD, heptakis(2,3,6-tri-O-methyl)-β-cyclodextrin] | – | 95
3 | OC[C@H]1O[C@@H]2O[C@H]3[C@H](O)[C@@H](O)[C@@H](O[C@H]4[C@H](O)[C@@H](O)[C@@H](O[C@H]5[C@H](O)[C@@H](O)[C@@H](O[C@H]6[C@H](O)[C@@H](O)[C@@H](O[C@H]7[C@H](O)[C@@H](O)[C@@H](O[C@H]8[C@H](O)[C@@H](O)[C@@H](O[C@H]9[C@H](O)[C@@H](O)[C@@H](O[C@H]1[C@H](O)[C@H]2O)O[C@@H]9CO)O[C@@H]8CO)O[C@@H]7CO)O[C@@H]6CO)O[C@@H]5CO)O[C@@H]4CO)O[C@@H]3CO [γCD, γ-cyclodextrin] | – | 68
